From patent publication US9376436B2, “2-(pyridin-2yl)-1, 7-diaza-spiro [4.4] nonane-6-one compound as voltage-gated sodium channels modulators” (CONVERGENCE PHARMACEUTICALS LIMITED, priority 2011, dated 2016)
Structures can show the parent of a compound that is named as a salt. Where two headings read alike, the source gives them in different places.

Biological target: T1, hNaV1.7 (Homo sapiens, UniProt Q15858)
T1 construct: expressed in transfected cells; host or cells: HEK293
Assay: QPatch NaV1.7 assay (whole-cell patch clamp, QPatch16x)
Format: cell-based
Conditions: HEK293-hNaV1.7 cells
Outline: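 Automated whole-cell recordings in hNaV1.7-expressing HEK293 cells, holding at either −90 mV (mostly closed channels) or the half-inactivation voltage. Compounds applied cumulatively at four concentrations for 120 s each; peak current on 20 ms depolarisation to 0 mV fitted by Hill equation to yield pIC50.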

[1] = holding voltage V1/2 SSI (half of channels inactivated), read-out: QP Nav1.7 SSI vhalf pIC50 (converted)
[2] = holding voltage −90 mV (most channels closed), read-out: QP Nav1.7 −90 mV pIC50 (converted)

T1 sequence (Q15858 whole entry): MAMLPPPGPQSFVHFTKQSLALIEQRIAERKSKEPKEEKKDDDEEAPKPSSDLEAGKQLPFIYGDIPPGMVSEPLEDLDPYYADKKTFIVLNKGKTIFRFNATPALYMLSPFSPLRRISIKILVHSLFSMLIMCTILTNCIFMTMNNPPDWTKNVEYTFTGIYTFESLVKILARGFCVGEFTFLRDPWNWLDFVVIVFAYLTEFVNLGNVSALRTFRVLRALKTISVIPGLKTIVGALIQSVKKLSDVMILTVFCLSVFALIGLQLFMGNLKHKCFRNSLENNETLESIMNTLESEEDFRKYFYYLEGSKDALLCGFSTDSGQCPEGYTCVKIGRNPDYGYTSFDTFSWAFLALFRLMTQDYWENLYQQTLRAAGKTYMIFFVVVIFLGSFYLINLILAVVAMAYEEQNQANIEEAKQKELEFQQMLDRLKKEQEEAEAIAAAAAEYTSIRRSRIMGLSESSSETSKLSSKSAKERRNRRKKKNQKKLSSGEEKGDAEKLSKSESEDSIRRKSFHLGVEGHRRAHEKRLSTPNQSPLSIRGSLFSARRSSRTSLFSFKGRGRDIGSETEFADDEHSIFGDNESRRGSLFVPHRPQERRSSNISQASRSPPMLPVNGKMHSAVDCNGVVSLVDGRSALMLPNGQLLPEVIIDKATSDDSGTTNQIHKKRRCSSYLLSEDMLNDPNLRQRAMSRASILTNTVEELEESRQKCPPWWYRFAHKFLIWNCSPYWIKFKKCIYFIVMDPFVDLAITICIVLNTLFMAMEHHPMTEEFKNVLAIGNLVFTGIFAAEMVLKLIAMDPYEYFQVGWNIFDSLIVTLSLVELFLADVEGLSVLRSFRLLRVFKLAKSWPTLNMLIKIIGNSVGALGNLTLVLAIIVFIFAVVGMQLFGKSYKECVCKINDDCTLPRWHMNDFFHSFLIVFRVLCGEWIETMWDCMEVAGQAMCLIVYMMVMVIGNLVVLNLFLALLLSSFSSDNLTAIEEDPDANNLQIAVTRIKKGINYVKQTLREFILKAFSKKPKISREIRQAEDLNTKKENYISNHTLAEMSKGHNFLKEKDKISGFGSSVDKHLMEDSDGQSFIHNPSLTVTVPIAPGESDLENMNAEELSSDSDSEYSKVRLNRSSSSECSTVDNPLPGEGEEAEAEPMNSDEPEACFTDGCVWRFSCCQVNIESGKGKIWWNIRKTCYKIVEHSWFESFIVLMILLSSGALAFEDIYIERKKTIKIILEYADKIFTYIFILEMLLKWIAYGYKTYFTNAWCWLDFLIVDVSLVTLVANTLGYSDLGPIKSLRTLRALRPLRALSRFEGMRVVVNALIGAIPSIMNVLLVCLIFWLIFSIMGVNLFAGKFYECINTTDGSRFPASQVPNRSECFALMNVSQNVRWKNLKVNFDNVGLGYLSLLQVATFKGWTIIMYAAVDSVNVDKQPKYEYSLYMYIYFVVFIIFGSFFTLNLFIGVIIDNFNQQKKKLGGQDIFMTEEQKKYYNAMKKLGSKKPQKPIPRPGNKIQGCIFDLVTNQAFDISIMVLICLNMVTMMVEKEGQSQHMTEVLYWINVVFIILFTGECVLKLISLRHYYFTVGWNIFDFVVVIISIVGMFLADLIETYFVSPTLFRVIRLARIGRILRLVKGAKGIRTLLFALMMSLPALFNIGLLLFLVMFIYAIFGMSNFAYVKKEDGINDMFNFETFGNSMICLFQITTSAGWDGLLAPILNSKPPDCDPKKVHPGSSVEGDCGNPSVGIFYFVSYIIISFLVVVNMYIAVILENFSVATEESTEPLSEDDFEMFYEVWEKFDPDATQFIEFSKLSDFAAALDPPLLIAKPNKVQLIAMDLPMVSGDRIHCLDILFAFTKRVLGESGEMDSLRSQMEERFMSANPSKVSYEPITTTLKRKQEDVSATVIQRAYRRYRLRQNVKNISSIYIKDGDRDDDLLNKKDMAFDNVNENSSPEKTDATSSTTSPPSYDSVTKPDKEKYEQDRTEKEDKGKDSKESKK

Work on `CN1CC[C@@]2(CC[C@H](c3cc(-c4cccc(C(F)(F)F)c4)ccn3)N2)C1=O` [Example 75, (2R,5S)-7-Methyl-2-[4-[3-(trifluoromethyl)phenyl]-2-pyridyl]-1,7-diazaspiro[4.4]nonan-6-one hydrochloride] yielded an IC50 [1] of 20 µM and an IC50 [2] of 126 µM.
Work on `CCOc1ccc(-c2ccnc([C@H]3CC[C@@]4(CCN(C)C4=O)N3)c2)cc1` [Example 76, (2R,5S)-2-[4-(4-Ethoxyphenyl)-2-pyridyl]-7-methyl-1,7-diazaspiro[4.4]nonan-6-one hydrochloride] yielded an IC50 [1] of 3.98 µM and an IC50 [2] of 63.1 µM.
Work on `CN1CC[C@@]2(CC[C@H](c3cc(-c4cc(F)cc(F)c4)ccn3)N2)C1=O` [Example 77, (2R,5S)-2-[4-(3,5-Difluorophenyl)-2-pyridyl]-7-methyl-1,7-diazaspiro[4.4]nonan-6-one hydrochloride] yielded an IC50 [1] of 31.6 µM and an IC50 [2] of 316 µM.
With `Cc1cscc1-c1ccnc([C@H]2CC[C@@]3(CCN(C)C3=O)N2)c1` [Example 78, (2R,5S)-7-Methyl-2-[4-(4-methyl-3-thienyl)-2-pyridyl]-1,7-diazaspiro[4.4]nonan-6-one hydrochloride] the IC50 [1] was 12.6 µM and the IC50 [2] was 158 µM.
In the case of `CN1CC[C@@]2(CC[C@H](c3cc(-c4ccc5c(ccn5C)c4)ccn3)N2)C1=O` [Example 79, (2R,5S)-7-Methyl-2-[4-(1-methylindol-5-yl)-2-pyridyl]-1,7-diazaspiro[4.4]nonan-6-one hydrochloride], the IC50 [1] was 31.6 µM and the IC50 [2] was 398 µM.
`COc1cccc(-c2ccnc([C@H]3CC[C@@]4(CCN(C)C4=O)N3)c2)c1Cl` [Example 80, (2R,5S)-2-[4-(2-Chloro-3-methoxy-phenyl)-2-pyridyl]-7-methyl-1,7-diazaspiro[4.4]nonan-6-one hydrochloride] showed an IC50 [1] of 200 µM and an IC50 [2] of 316 µM.
`CN1CC[C@@]2(CC[C@H](c3cc(-c4cccc5c4OC(F)(F)O5)ccn3)N2)C1=O` [Example 81, (2R,5S)-2-[4-(2,2-Difluoro-1,3-benzodioxol-4-yl)-2-pyridyl]-7-methyl-1,7-diazaspiro[4.4]nonan-6-one hydrochloride] gave an IC50 [1] of 3.16 µM and an IC50 [2] of 200 µM.
Work on `CCOc1cccc(-c2ccnc([C@H]3CC[C@@]4(CCN(C)C4=O)N3)c2)c1` [Example 82, (2R,5S)-2-[4-(3-Ethoxyphenyl)-2-pyridyl]-7-methyl-1,7-diazaspiro[4.4]nonan-6-one hydrochloride] yielded an IC50 [1] of 7.94 µM and an IC50 [2] of 200 µM.
`COc1ccc(Cl)c(-c2ccnc([C@H]3CC[C@@]4(CCN(C)C4=O)N3)c2)c1` [Example 83, (2R,5S)-2-[4-(2-Chloro-5-methoxy-phenyl)-2-pyridyl]-7-methyl-1,7-diazaspiro[4.4]nonan-6-one hydrochloride] gave an IC50 [1] of 31.6 µM and an IC50 [2] of 200 µM.
`CN1CC[C@@]2(CC[C@H](c3cc(-c4cc(OC(F)F)ccc4F)ccn3)N2)C1=O` [Example 84, (2R,5S)-2-[4-[5-(Difluoromethoxy)-2-fluoro-phenyl]-2-pyridyl]-7-methyl-1,7-diazaspiro[4.4]nonan-6-one hydrochloride] showed an IC50 [1] of 20 µM and an IC50 [2] of 200 µM.
`Cc1cc(-c2ccc(OC(C)C)cc2)cc([C@H]2CC[C@@]3(CCN(C)C3=O)N2)n1` [Example 85, (2R,5S)-2-[4-(4-Isopropoxyphenyl)-6-methyl-2-pyridyl]-7-methyl-1,7-diazaspiro[4.4]nonan-6-one hydrochloride] showed an IC50 [1] of 0.316 µM and an IC50 [2] of 10 µM.
Molecule `Cc1cc(-c2ccc(OC(C)C)cc2)cc([C@@H]2CC[C@@]3(CCN(C)C3=O)N2)n1` [Example 86, (2S,5S)-2-[4-(4-Isopropoxyphenyl)-6-methyl-2-pyridyl]-7-methyl-1,7-diazaspiro[4.4]nonan-6-one hydrochloride] has an IC50 [1] of 10 µM and an IC50 [2] of 100 µM.
Work on `Cc1ccc(-c2cc(C)nc([C@H]3CC[C@@]4(CCN(C)C4=O)N3)c2)cc1` [Example 87, (2R,5S)-7-Methyl-2-[6-methyl-4-(p-tolyl)-2-pyridyl]-1,7-diazaspiro[4.4]nonan-6-one hydrochloride] yielded an IC50 [1] of 6.31 µM and an IC50 [2] of 126 µM.
`CCOc1ccc(-c2cc(C)nc([C@@H]3CC[C@@]4(CCN(C)C4=O)N3)c2)cc1` [Example 88, (2S,5S)-2-[4-(4-Ethoxyphenyl)-6-methyl-2-pyridyl]-7-methyl-1,7-diazaspiro[4.4]nonan-6-one hydrochloride] showed an IC50 [1] of 31.6 µM and an IC50 [2] of 316 µM.
In the case of `CCOc1ccc(-c2cc(C)nc([C@H]3CC[C@@]4(CCN(C)C4=O)N3)c2)cc1` [Example 89, (3R,5S)-3-[4-(4-Ethoxyphenyl)-6-methyl-2-pyridyl]-8-methyl-4,8-diazaspiro[4.4]nonan-9-one hydrochloride], the IC50 [1] was 3.16 µM and the IC50 [2] was 50.1 µM.
`COc1cc(C(F)(F)F)ccc1-c1cc(C)nc([C@H]2CC[C@]3(CCN(C)C3=O)N2)c1` [Example 90, (3R,5R)-3-[4-[2-Methoxy-4-(trifluoromethyl)phenyl]-6-methyl-2-pyridyl]-8-methyl-4,8-diazaspiro[4.4]nonan-9-one hydrochloride] was tested, and the IC50 [1] was 0.316 µM and the IC50 [2] was 6.31 µM.
`COc1cc(C(F)(F)F)ccc1-c1cc(C)nc([C@@H]2CC[C@]3(CCN(C)C3=O)N2)c1` [Example 91, (3S,5R)-3-[4-[2-Methoxy-4-(trifluoromethyl)phenyl]-6-methyl-2-pyridyl]-8-methyl-4,8-diazaspiro[4.4]nonan-9-one hydrochloride] was tested, and the IC50 [1] was 2 µM and the IC50 [2] was 39.8 µM.
Work on `CCOc1ccc(F)c(-c2cc(C)nc([C@@H]3CC[C@@]4(CCN(C)C4=O)N3)c2)c1` [Example 92, (2S,5S)-2-[4-(5-Ethoxy-2-fluoro-phenyl)-6-methyl-pyridin-2-yl]-7-methyl-1,7-diaza-spiro[4.4]nonan-6-one hydrochloride] yielded an IC50 [1] of 2.51 µM and an IC50 [2] of 39.8 µM.
With `CCOc1ccc(F)c(-c2cc(C)nc([C@H]3CC[C@@]4(CCN(C)C4=O)N3)c2)c1` [Example 93, (2R,5S)-2-[4-(5-Ethoxy-2-fluoro-phenyl)-6-methyl-pyridin-2-yl]-7-methyl-1,7-diaza-spiro[4.4]nonan-6-one hydrochloride] the IC50 [1] was 3.98 µM and the IC50 [2] was 39.8 µM.
In the case of `Cc1cc(-c2ccc(C(F)(F)F)cc2)cc([C@H]2CC[C@@]3(CCNC3=O)N2)n1` [Example 94, (2R,5S)-2-[6-Methyl-4-[4-(trifluoromethyl)phenyl]-2-pyridyl]-1,7-diazaspiro[4.4]nonan-6-one hydrochloride], the IC50 [1] was 0.2 µM and the IC50 [2] was 3.98 µM.
In the case of `Cc1cc(-c2ccc(C(F)(F)F)cc2)cc([C@@H]2CC[C@]3(CCNC3=O)N2)n1` [Example 95, (2S,5R)-2-[6-Methyl-4-[4-(trifluoromethyl)phenyl]-2-pyridyl]-1,7-diazaspiro[4.4]nonan-6-one hydrochloride], the IC50 [1] was 12.6 µM and the IC50 [2] was 100 µM.
Molecule `Cc1cc(-c2ccc(C(F)(F)F)cc2)cc([C@H]2CC[C@]3(CCNC3=O)N2)n1` [Example 96, (2R,5R)-2-[6-Methyl-4-[4-(trifluoromethyl)phenyl]-2-pyridyl]-1,7-diazaspiro[4.4]nonan-6-one hydrochloride] has an IC50 [1] of 3.16 µM and an IC50 [2] of 20 µM.
`Cc1cc(-c2ccc(C(F)(F)F)cc2)cc([C@@H]2CC[C@@]3(CCNC3=O)N2)n1` [Example 97, (2S,5S)-2-[6-Methyl-4-[4-(trifluoromethyl)phenyl]-2-pyridyl]-1,7-diazaspiro[4.4]nonan-6-one hydrochloride] gave an IC50 [1] of 1.26 µM and an IC50 [2] of 20 µM.
Work on `Cc1cc(-c2ccc(C(F)(F)F)cc2)cc([C@@H]2CC[C@]3(CCCNC3=O)N2)n1` [Example 98, (2S,5S)-2-[6-Methyl-4-(4-trifluoromethyl-phenyl)-pyridin-2-yl]-1,7-diaza-spiro[4.5]decan-6-one hydrochloride] yielded an IC50 [1] of 0.631 µM and an IC50 [2] of 25.1 µM.
`Cc1cc(-c2ccc(C(F)(F)F)cc2)cc([C@H]2CC[C@@]3(CCCNC3=O)N2)n1` [Example 99, (2R,5R)-2-[6-Methyl-4-(4-trifluoromethyl-phenyl)-pyridin-2-yl]-1,7-diaza-spiro[4.5]decan-6-one hydrochloride] was tested, and the IC50 [1] was 1 µM and the IC50 [2] was 15.8 µM.
Molecule `Cc1cc(-c2ccc(C(F)(F)F)cc2)cc([C@H]2CC[C@]3(CCCNC3=O)N2)n1` [Example 100, (2R,5S)-2-[6-Methyl-4-(4-trifluoromethyl-phenyl)-pyridin-2-yl]-1,7-diaza-spiro[4.5]decan-6-one hydrochloride] has an IC50 [1] of 0.2 µM and an IC50 [2] of 1 µM.
With `Cc1cc(-c2ccc(C(F)(F)F)cc2)cc([C@@H]2CC[C@@]3(CCCNC3=O)N2)n1` [Example 101, (2S,5R)-2-[6-Methyl-4-(4-trifluoromethyl-phenyl)-pyridin-2-yl]-1,7-diaza-spiro[4.5]decan-6-one hydrochloride] the IC50 [1] was 10 µM and the IC50 [2] was 12.6 µM.
Molecule `CCOc1ccc(F)c(-c2cc(C)nc([C@@H]3CC[C@]4(CCNC4=O)N3)c2)c1` [Example 102, (2S,5R)-2-[4-(5-Ethoxy-2-fluoro-phenyl)-6-methyl-2-pyridyl]-1,7-diazaspiro[4.4]nonan-6-one hydrochloride] has an IC50 [1] of 2 µM and an IC50 [2] of 25.1 µM.
Molecule `CCOc1ccc(F)c(-c2cc(C)nc([C@H]3CC[C@]4(CCNC4=O)N3)c2)c1` [Example 103, (2R,5R)-2-[4-(5-Ethoxy-2-fluoro-phenyl)-6-methyl-2-pyridyl]-1,7-diazaspiro[4.4]nonan-6-one hydrochloride] has an IC50 [1] of 0.126 µM and an IC50 [2] of 2.51 µM.
Molecule `CCOc1ccc(F)c(-c2cc(C)nc([C@H]3CC[C@@]4(CCNC4=O)N3)c2)c1` [Example 104, (2R,5S)-2-[4-(5-Ethoxy-2-fluoro-phenyl)-6-methyl-2-pyridyl]-1,7-diazaspiro[4.4]nonan-6-one hydrochloride] has an IC50 [1] of 0.158 µM and an IC50 [2] of 1.58 µM.
`CCOc1ccc(F)c(-c2cc(C)nc([C@@H]3CC[C@@]4(CCNC4=O)N3)c2)c1` [Example 105, (2S,5S)-2-[4-(5-Ethoxy-2-fluoro-phenyl)-6-methyl-2-pyridyl]-1,7-diazaspiro[4.4]nonan-6-one hydrochloride] gave an IC50 [1] of 2 µM and an IC50 [2] of 25.1 µM.
